Experiments:
[1] = Acute intervention: nutrikinetics of plasma metabolites after ingestion of L. citriodora extract (untargeted HPLC-ESI-QTOF-MS)
Procedure: A total of 25 healthy individuals participated, with an average age of 27 ± 9 years and a mean body mass index (BMI) of 23 ± 3 kg/m^2. None of the participants were taking any medications or nutritional supplements nor did they have any chronic diseases or gastrointestinal issues. The sample size was established based on findings from previous bioavailability research.[14] All participants provided informed consent before participating in the study.
The intervention study was carried out at Miguel Hernández University. Following an overnight fast, the volunteers were categorized into the subsequent groups: a subgroup to evaluate the LC leaf extract (n = 8), another for the OE leaf extract (n = 8), and the placebo subgroup (n = 9). This was a double-blind study, in which sample collection and treatment were carried out uniformly across all three subgroups.
Water was provided ad libitum. Prior to the ingestion of the capsule, a nurse inserted a cannula into the ulnar vein of each volunteer’s nondominant arm, and blood samples were drawn into EDTA-coated tubes at baseline (t = 0). Blood samples were then collected at 0.5, 1, 2, 4, 6, 8, and 10 h after the consumption of the 500 mg capsule. Plasma was separated through centrifugation (10 min at 3000 rpm and 4 °C) and stored at −80 °C until further analysis.
Plasma samples were initially treated using a mixture of methanol and ethanol (50:50; v:v) to remove proteins, following previously reported protocols.[19] During the sample treatment, pooled quality controls (pooled-QC) were prepared by combining equal aliquots from each sample. These QC samples were processed by using the same protocols as the experimental biological samples.
A reversed-phase analytical C18 column (Agilent Zorbax Eclipse Plus, 1.8 μm, 4.6 × 150 mm^2) with a protective cartridge with the same packing was used. MS data were acquired in negative ionization mode, operating in full scan across a mass-to-charge ratio (m/z) range of 50–1700. The analytical method used was adapted from that described by Villegas-Aguilar et al.[19]
Metabolite nutrikinetics were studied using PKSolver, an add-in program for pharmacokinetic data analysis in Microsoft Excel. The time to reach the maximum concentration (observed Tmax) was calculated for each significant metabolite. As an untargeted metabolomic approach was used to detect the circulating metabolites, these were not quantified. Therefore, the maximum concentration (Cmax) and area under the curve (AUC) parameters were calculated in a relative way by using the deconvoluted chromatographic areas. […] Statistical differences were determined by unpaired t tests. All p values less than 0.05 were considered statistically significant.

[2] = Acute intervention: nutrikinetics of plasma metabolites after ingestion of O. europaea extract (untargeted HPLC-ESI-QTOF-MS)
Procedure, shortened: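 Fasted healthy volunteers (n = 8 per extract, placebo n = 9, double-blind) took one 500 mg capsule. Plasma was drawn at 0–10 h, protein-precipitated with methanol:ethanol and analysed by C18 HPLC-ESI-QTOF-MS in negative full scan (m/z 50–1700). Tmax was observed; Cmax and AUC are relative, from deconvoluted peak areas.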

[3] = 0.5 h after L. citriodora extract
[4] = 1 h after L. citriodora extract
[5] = 2 h after L. citriodora extract
[6] = 4 h after L. citriodora extract
[7] = 6 h after L. citriodora extract
[8] = 8 h after L. citriodora extract
[9] = 10 h after L. citriodora extract
[10] = human plasma, 500 mg capsule of L. citriodora (LC) extract, oral, mean ± SD
[11] = 0.5 h after O. europaea extract
[12] = human plasma, 500 mg capsule of O. europaea (OE) extract, oral, mean ± SD

Compound	mean chromatographic area in plasma, T0.5 [1, 3]	mean chromatographic area in plasma, T1 [1, 4]	mean chromatographic area in plasma, T2 [1, 5]	mean chromatographic area in plasma, T4 [1, 6]	mean chromatographic area in plasma, T6 [1, 7]	mean chromatographic area in plasma, T8 [1, 8]	mean chromatographic area in plasma, T10 [1, 9]	AUC: area under the zero-moment curve [1, 10]	Cmax: relative maximum plasma level [1, 10]	observed Tmax: time required to reach Cmax [1, 10] [h]	mean chromatographic area in plasma, T0.5 [2, 11]	mean chromatographic area in plasma, T1 ([2]; 1 h after O. europaea extract)	mean chromatographic area in plasma, T2 ([2]; 2 h after O. europaea extract)	mean chromatographic area in plasma, T4 ([2]; 4 h after O. europaea extract)	mean chromatographic area in plasma, T6 ([2]; 6 h after O. europaea extract)	mean chromatographic area in plasma, T8 ([2]; 8 h after O. europaea extract)	mean chromatographic area in plasma, T10 ([2]; 10 h after O. europaea extract)	Cmax: relative maximum plasma level [2, 12]	observed Tmax: time required to reach Cmax [2, 12] [h]	AUC: area under the zero-moment curve ([1]; human, in vivo, po, 500 mg)	further results
COc1cc(C(=O)O)ccc1OS(=O)(=O)O [vanillic acid 4-O-sulfate isomer 1, vanillic acid 4-O-sulfate]	0	0	97	395	548	588	365	3576 ± 3122 relative chromatographic area/h	874 ± 644 relative chromatographic area	8 ± 3	275	489	354	279	216	137	60	489 ± 147 relative chromatographic area	1.0 ± 0.0	–	–
homovanillic acid glucuronide	–	–	–	–	–	–	–	–	–	–	–	–	–	–	–	–	–	–	–	1345 ± 1042 relative chromatographic area/h	Cmax: relative maximum plasma level ([1]; human, in vivo, po, 500 mg): 360 ± 219 relative chromatographic area; mean chromatographic area in plasma, T0.5 ([1]; in vivo): 0; mean chromatographic area in plasma, T1 ([1]; in vivo): 0; mean chromatographic area in plasma, T2 ([1]; in vivo): 0; mean chromatographic area in plasma, T4 ([1]; in vivo): 114; mean chromatographic area in plasma, T6 ([1]; in vivo): 232; mean chromatographic area in plasma, T8 ([1]; in vivo): 219; mean chromatographic area in plasma, T10 ([1]; in vivo): 214; Cmax: relative maximum plasma level ([2]; human, in vivo, po, 500 mg): 199 ± 54 relative chromatographic area; mean chromatographic area in plasma, T0.5 ([2]; in vivo): 13; mean chromatographic area in plasma, T1 ([2]; in vivo): 94; mean chromatographic area in plasma, T2 ([2]; in vivo): 99; mean chromatographic area in plasma, T4 ([2]; in vivo): 182; mean chromatographic area in plasma, T6 ([2]; in vivo): 141; mean chromatographic area in plasma, T8 ([2]; in vivo): 80; mean chromatographic area in plasma, T10 ([2]; in vivo): 58
homovanillic acid sulfate [homovanillic acid sulfate isomer 2]	–	–	–	–	–	–	–	–	–	–	–	–	–	–	–	–	–	–	–	1771 ± 1599 relative chromatographic area/h	Cmax: relative maximum plasma level ([1]; human, in vivo, po, 500 mg): 476 ± 363 relative chromatographic area; observed Tmax: time required to reach Cmax ([1]; human, in vivo, po, 500 mg): 9 ± 2 h; mean chromatographic area in plasma, T0.5 ([1]; in vivo): 0; mean chromatographic area in plasma, T1 ([1]; in vivo): 0; mean chromatographic area in plasma, T2 ([1]; in vivo): 25; mean chromatographic area in plasma, T4 ([1]; in vivo): 112; mean chromatographic area in plasma, T6 ([1]; in vivo): 215; mean chromatographic area in plasma, T8 ([1]; in vivo): 336; mean chromatographic area in plasma, T10 ([1]; in vivo): 408; Cmax: relative maximum plasma level ([2]; human, in vivo, po, 500 mg): 215 ± 68 relative chromatographic area; observed Tmax: time required to reach Cmax ([2]; human, in vivo, po, 500 mg): 4 ± 2 h; mean chromatographic area in plasma, T0.5 ([2]; in vivo): 0; mean chromatographic area in plasma, T1 ([2]; in vivo): 76; mean chromatographic area in plasma, T2 ([2]; in vivo): 161; mean chromatographic area in plasma, T4 ([2]; in vivo): 191; mean chromatographic area in plasma, T6 ([2]; in vivo): 182; mean chromatographic area in plasma, T8 ([2]; in vivo): 154; mean chromatographic area in plasma, T10 ([2]; in vivo): 130
hydroxytyrosol glucuronide [hydroxytyrosol glucuronide isomer 2]	0	0	0	48	81	34	23	350 ± 158 relative chromatographic area/h	106 ± 17 relative chromatographic area	8 ± 2	1726	2553	1437	507	251	161	75	2627 ± 1167 relative chromatographic area	0.9 ± 0.2	–	observed Tmax: time required to reach Cmax ([1]; human plasma, 500 mg capsule of L. citriodora (LC) extract, oral, mean ± SD, listed as hydroxytyrosol glucuronide): 7 ± 2 h; observed Tmax: time required to reach Cmax ([2]; human plasma, 500 mg capsule of O. europaea (OE) extract, oral, mean ± SD, listed as hydroxytyrosol glucuronide): 1 h
hydroxytyrosol sulfate [hydroxytyrosol sulfate isomer 2]	0	0	138	289	575	591	686	3802 ± 2564 relative chromatographic area/h	902 ± 428 relative chromatographic area	8 ± 2	336	646	605	202	235	140	202	836 ± 359 relative chromatographic area	3 ± 3	–	observed Tmax: time required to reach Cmax ([1]; human plasma, 500 mg capsule of L. citriodora (LC) extract, oral, mean ± SD, listed as hydroxytyrosol sulfate): 7 ± 2 h; observed Tmax: time required to reach Cmax ([2]; human plasma, 500 mg capsule of O. europaea (OE) extract, oral, mean ± SD, listed as hydroxytyrosol sulfate): 1 h

— article PMC11544713, “The Application of Untargeted Metabolomic Approaches for the Search of Common Bioavailable Metabolites in Human Plasma Samples from Lippia citriodora and Olea europaea Extracts” (Journal of Agricultural and Food Chemistry, 2024)
